{"source": "patent US20210308270A1", "about": "“SYSTEMS AND METHODS FOR INTRACELLULAR DELIVERY VIA NON-CHARGED SEQUENCE-DEFINED CELL-PENETRATING OLIGOMERS” (priority 2018, published 2021)", "key": {"[1]": {"system": "Listeria monocytogenes DP-L1942", "assay": "In vitro intracellular infection assay in J774 cells", "type": "cell-based", "experimental": "In vitro Intracellular Infection Assay: 100,000 cells/well J774 cells in DMEM supplemented with 10% FBS without pen-strep, referred to as normal growth media, were plated in a 24-well plate and incubated for 20-24 hrs before use. Listeria monocytogenes DP-L1942 strain was taken from an exponentially growing culture (OD600 of ˜0.5) and washed with 1×PBS pH 7.4. Macrophages were infected with 200,000 bacteria in normal growth media to achieve an initial infection of approximately two bacteria per cell (MOI=2). The cells were washed twice with PBS at 30 mins after infection and supplemented with normal growth media. At 1-hr post infection, gentamicin (50 μg/ml) was added to eliminate all extracellular bacteria. The cells were then washed twice with PBS after 30 mins of incubation and supplemented with normal growth media. At 2-hr post infection, 30 μM of CPOT-vancomycin conjugates were added to the infected cells and incubated for 4 hrs. At the end of the incubation period, macrophages were washed twice with PBS, and the cells were lysed with 0.1% Triton-X in PBS. The cell lysate was diluted 10× in Brain Heart Infusion (BHI) broth and plated in a 96-well plate. The plate was incubated at 37° C. with agitation. The growth curve kinetics were generated from the absorbance measurements at 600 nm taken every 5 mins for 14 hrs."}, "HeLa cells [2]": {"system": "HeLa cells", "assay": "Cellular uptake of fluorescein conjugates by flow cytometry, HeLa", "type": "cell-based, human", "experimental": "(§1) After the incubation, cells were washed with PBS and incubated with 200 μL of Trypsin EDTA at 37° C. for 3-5 mins. 1 mL of DMEM with 10% FBS was then added to quench the trypsin. […] Results were analyzed by FlowJo software.\nDose-dependent uptake: The standard uptake procedure was followed, except that cells were treated with the labeled oligoTEAs at 0.5 μM to 5 μM. All other conditions remained the same.\nUptake kinetics study: The standard uptake procedure was followed, except that cells were treated with fluorescein-PEO^2-B at 2.5 μM for 15-120 mins (minutes). After the incubation, the plate was cells were washed with PBS and incubated with 200 μL of Trypsin EDTA at 37° C. for 3-5 mins. All other conditions remained the same.\n(§2) Mechanism of uptake: The standard uptake procedure was followed with the following changes for each mechanistic condition. Readings were taken on a FACSAria™ Fusion flow cytometry analyzer (Becton Dickinson).\nUptake with and without serum: Prior to treatment, cells were washed with PBS. Cells were then incubated with fluorescein conjugates in either DMEM with 10% FBS or Opti-MEM at 37° C. for 1 hr. Following treatment, cells were washed with PBS before addition of Trypsin EDTA.\nPretreatment with heparin sulfate: Prior to treatment, fluorescein conjugates were incubated with different concentrations of heparin sulfate and DMEM with 10% FBS in Eppendorf® tubes for 30 mins at 37° C. Cells were washed with PBS, and incubated with the treatment solutions at 37° C. for 1 hr. Following treatment, cells were washed with PBS once more before addition of Trypsin EDTA.\n(§3) Temperature dependence: Prior to treatment, fluorescein conjugates were incubated with DMEM with 10% FBS in Eppendorf® tubes for 30 mins at 37° C. or 4° C. Cells were washed with warm (37° C.) or cool (4° C.) PBS for 5 mins. Pre-warmed or pre-cooled fluorescein conjugate solution was then added, and cells were incubated at 37° C. or refrigerated at 4° C. for 1 hr. Following treatment, cells were washed with PBS before addition of Trypsin EDTA.\n(§4) Uptake with and without NaN3 and 2-deoxy-D-glucose (DOG): Prior to treatment, cells were washed with PBS. Cells were then incubated with 10 mM NaN3 and 25 mM DOG in DMEM with 10% FBS at 37° C. for 1 hr. Fluorescein conjugates were added, and cells were incubated at 37° C. for another hour. Following treatment, cells were washed with PBS before addition of Trypsin EDTA.\nas §4, with “chlorpromazine (CPM):” for “NaN3 and 2-deoxy-D-glucose (DOG):”, “5 μg/mL (or 15.7 μM) CPM” for “10 mM NaN3 and 25 mM DOG”, “EDTA. […]” for “EDTA.”"}, "SKOV-3 cells": {"system": "SKOV-3 cells", "assay": "Cellular uptake of fluorescein conjugates by flow cytometry, SKOV-3", "type": "cell-based, human", "experimental": "as §1, §2, §3, §4\n(§5) Uptake with and without chlorpromazine (CPM): Prior to treatment, cells were washed with PBS. […]"}, "HEK293 cells": {"system": "HEK293 cells", "assay": "Cellular uptake of fluorescein conjugates by flow cytometry, HEK293", "type": "cell-based, human", "experimental": "as §1, §2, §3, §4, §5"}, "HeLa cells [3]": {"system": "HeLa cells", "assay": "Live-cell confocal microscopy and time-lapse imaging", "type": "cell-based, human", "experimental": "Live-Cell confocal microscopy: 70,000 HeLa cells/chamber were plated in a 4-chamber 35-mm glass-bottom microwell dish ([…]) and cultured at 37° C. for 20-24 hrs. […] For co-localization experiments, cells were incubated with fluorescein conjugates along with 150 nM Transferrin-Alexa Fluor 647, or 150 μM Dextran-Alexa Fluor 647 for 1 hr at 37° C. Cells were gently washed 3 times with PBS, and FluoroBrite DMEM Media supplemented with 10% FBS was added to each chamber for imaging. Images were taken on a Zeiss LSM880 live-cell confocal/multiphoton inverted microscope, equipped with a 63× oil objective, with 488-nm and 633-nm lasers enabled for fluorescein and Transferrin-Alexa Fluor 647/Dextran-Alexa Fluor 647, respectively. Images were processed using Fiji software. Time-lapse live-cell imaging: 70,000 HeLa cells/chamber were plated in a 4-chamber 35-mm glass-bottom microwell dish ([…]) and cultured at 37° C. for 20-24 hrs. […] Images were taken on a Zeiss LSM880 live-cell confocal/multiphoton inverted microscope, equipped with a 63× oil objective, with 488-nm laser enabled for fluorescein. Images were processed using Fiji software."}, "J774 cells": {"system": "J774 cells", "assay": "Uptake of fluorescein cargo by oligoTEAs, flow cytometry, J774", "type": "cell-based", "details": "5 μM, 1 hr", "experimental": "(§6) After the incubation, cells were washed with PBS. […] Results were analyzed by FlowJo software."}, "MC-3T3-E1 cells": {"system": "MC-3T3-E1 cells", "assay": "Uptake of fluorescein cargo by oligoTEAs, flow cytometry, MC-3T3-E1", "type": "cell-based", "details": "5 μM, 1 hr", "experimental": "as §6"}}, "data": [{"molecule": "O=C(O)c1cn(C2CC2)c2cc(N3CCNCC3)c(F)cc2c1=O", "note": "[Ciprofloxacin]", "values": [{"measurement": "inhibition at 30 µM", "setting": "[1]; Listeria monocytogenes, DPL1942, J774, 4 h, read-out: inhibition of bacteria growth", "result": "> 80", "unit": "%"}]}, {"molecule": "CN[C@H](CC(C)C)C(=O)N[C@H]1C(=O)N[C@@H](CC(N)=O)C(=O)N[C@H]2C(=O)N[C@H]3C(=O)N[C@H](C(=O)N[C@H](C(=O)O)c4cc(O)cc(O)c4-c4cc3ccc4O)[C@H](O)c3ccc(c(Cl)c3)Oc3cc2cc(c3O[C@@H]2O[C@H](CO)[C@@H](O)[C@H](O)[C@H]2O[C@H]2C[C@](C)(N)[C@H](O)[C@H](C)O2)Oc2ccc(cc2Cl)[C@H]1O", "note": "[vancomycin]", "values": [{"measurement": "inhibition of bacteria growth", "setting": "[1]; 30 μM, 4 hrs treatment, 14th hour of growth curve", "result": "little to no effect on bacteria growth"}]}, {"molecule": "Ac-RRRRRRRRRK-Am (Ac-RRRRRRRRRK-NH2) [R9, widely used cationic CPP, purchased from GenScript]", "values": [{"measurement": "temperature dependence of uptake, 4° C. vs 37° C.", "setting": "HeLa cells [2]", "result": "weaker dependence on temperature"}, {"measurement": "increase of uptake in the absence of serum", "setting": "HeLa cells [2]; Opti-MEM vs DMEM with 10% FBS", "result": 2, "unit": "fold"}, {"measurement": "effect of endocytosis inhibitors on uptake", "setting": "HeLa cells [2]; chlorpromazine (clathrin), filipin III (caveolae), cytochalasin D (macropinocytosis)", "result": "dependence on clathrin in HeLa cells and macropinocytosis in both HEK293 and HeLa cells"}, {"measurement": "decrease of uptake in the presence of heparin sulfate", "setting": "HeLa cells [2]; conjugate pretreated with heparin sulfate 30 mins", "result": 6, "unit": "fold"}, {"measurement": "temperature dependence of uptake, 4° C. vs 37° C.", "setting": "SKOV-3 cells", "result": "weaker dependence on temperature"}, {"measurement": "temperature dependence of uptake, 4° C. vs 37° C.", "setting": "HEK293 cells", "result": "weaker dependence on temperature"}, {"measurement": "effect of endocytosis inhibitors on uptake", "setting": "HEK293 cells; chlorpromazine, filipin III, cytochalasin D", "result": "macropinocytosis in both HEK293 and HeLa cells"}, {"measurement": "subcellular distribution", "setting": "HeLa cells [3]; 5 μM fluorescein conjugate, 1 hr, 63×", "result": "primarily as punctate spots"}, {"measurement": "trend of uptake of fluorescein cargo", "setting": "J774 cells", "result": "R9 (PEG-Bu)4>(BDT-PEG)4>(BDT-PEG4)4˜(PEG-PEG)4"}, {"measurement": "trend of uptake of fluorescein cargo", "setting": "MC-3T3-E1 cells", "result": "R9 (PEG-Bu)4>(BDT-PEG)4>(BDT-PEG4)4˜(PEG-PEG)4"}]}, {"molecule": "fluorescein acid", "values": [{"measurement": "internalization in time-lapse live cell imaging", "setting": "HeLa cells [3]; 2.5 μM, trypan blue present, 60 mins", "result": "no internalization"}]}]}
